Reference: patent US20100143332A1, “COMBINATION THERAPY FOR PROLIFERATIVE DISORDERS” (Schering Corporation, priority 2006, published 2010)

Tests used:
[1] = tested on: γ-H2A.X phosphorylation in U20S cells; assay: γ-H2A.X phosphorylation by intracellular staining and FACS (marker of double-stranded DNA breaks); type: cell-based, Human
Protocol: (§1) Cell lines, drugs, and siRNA treatment materials and methods are as follow. Human U20S osteosarcoma cells are grown in DMEM (Mediatech, Herndon, Va.) supplemented with 10% FBS (JRH BioSciences, St. Louis, Mo.), 200 U/ml penicillin, 200 μg/ml streptomycin, and 300 μg/ml L-Glutamine (Cambrex). HU (Sigma, St. Louis, Mo.) is used at 1 mM for 15 hours.
(§2) Cells are transfected with 50 nM siRNA for Chk1, 100 nM siRNA for Luciferase (Luc), PolA, PolE, PolD1, and ATR duplexes using Lipofectamine 2000 (Invitrogen, Carlsbad, Calif.) according to the manufacturer's protocol.
Flow cytometric analysis, e.g. γ-H2AX detection for DNA damage and BrdU incorporation for cell cycle analysis, is performed as described previously (Cho et al. (2005) Cell Cycle 4:131) and analyzed with a BD LSR II (BD BioSciences, San Jose, Calif.) using FacsDIVA software.

[2] = tested on: Chk1 S345 phosphorylation in U20S cells; assay: Western blot of Chk1 S345 phosphorylation in cell extracts; type: cell-based, Human; details: for Chk1 S345 phosphorylation after antimetabolite treatment: 1 mM HU, 5 μM Gem or 5 μM Ara-C for 2 h, FIG. 1
Protocol: as §1, §2
(§3) Western blot analysis of siRNA knockdowns is performed as follows. Cell pellets are trypsinized, washed with PBS, and lysed in 2×SDS sample buffer (Invitrogen, Carlsbad, Calif.). Protein extracts are separated by SDS-polyacrylamide gel electrophoresis and transfer to Immobilon®-P membrane (Millipore, Billarica, Mass.). Antibodies used in this study are obtained from Santa Cruz Biotechnology, Inc. (Santa Cruz, Calif.) (Polα, Polε, Polδ, Rad17), Cell Signaling Technology, Inc. (Danvers, Mass.) (pS345-Chk1, pT68-Chk2), Stressgen Bioreagents Corp. (San Diego, Calif.) (Chk1), and Bethyl Laboratories, Inc. (Montgomery, Tex.) (pS33-RPA 32).
U20S cells were untreated (“-”) or treated with 1 mM HU, 5 μM Gem, or 5 μM Ara-C for 2 h. Cell extracts were prepared and immunoblotted with a phospho-Chk1 S345 antibody to show phosphorylated Chk1 (Chk1 S345) and Chk1 (loading control). […] Liu et al. (2000) Genes Dev. 14:1448; Zhao & Piwnica-Worms (2001) Mol. Cell. Biol. 21:4129; Capasso et al. (2002) J. Cell Sci. 115:4555.
At 48 h after siRNA transfections, extracts were prepared and immunoblotted with the indicated antibodies. HU-treated cells were treated with 1 mM HU for 7 h before harvest.

[3] = tested on: RPA32 S33 phosphorylation in U20S cells; assay: Western blot of RPA32 S33 phosphorylation in cell extracts; type: cell-based, Human; details: 1 mM HU 15 h, cells transfected with luciferase (control) siRNA, FIG. 10
Protocol: as §1, §2, §3
Cells were tested for Chk1 and RPA32 phosphorylation as a function of depletion of DNA polymerases alone and in combination with depletion of Chk1. […]

[4] = tested on: Chk1 S345 in Polα complexes, U20S cells; assay: Time course of Chk1 S345 accumulation in Polα immunoprecipitates; type: cell-based, Human; details: HU for 0.5, 1, 2 and 15 h; first time point tested; FIG. 9
Protocol: Immunoprecipitation is performed as follows. Cell pellets are lysed in LT250 buffer (50 mM Tris-HCl pH 7.4, 250 mM NaCl, 5 mM EDTA, 0.1% NP-40, 10% glycerol, 1 mM DTT, 1:100 dilution of phosphatase inhibitor set I and II, and protease inhibitor cocktail set 111 (Calbiochem, San Diego, Calif.). Protein concentrations are determined using the Bio-Rad Protein Assay (Bio-Rad, Hercules, Calif.). For immunoprecipitation, protein lysates (2 mg) are incubated with anti-Polα (SJK 132-20) antibody cross-linked to ImmunoPure Protein G beads for 4 hours at 4° C. Pab419 monoclonal Ab against SV40 T antigen is typically used as a negative control.
(§4) A time course of HU induction of Chk1 phosphorylation was performed. U20S cells were treated with HU for 0.5, 1, 2 and 15 h, and protein extracts were prepared for immunoprecipitation. Polα was immunoprecipitated with Polα antibodies (SJK132-20) cross-linked to protein G. Western blots were performed using anti-Polα, anti-Chk1, and anti-Chk1 S345 antibodies (FIG. 9). Chk1 phosphorylation was complete at even the earliest timepoint, and both Chk1 and Chk1 S345P co-immunoprecipitated with Polα.

[5] = molecular target: T1, human DNA polymerase alpha (human, UniProt P09884 1-1462); assay: immunoprecipitation with SJK132-20, HU time course, western blot
T1 construct: Endogenous protein in lysates of human U20S osteosarcoma cells; Other subunits of the polymerase alpha complex may have been present in the immune complexes; also called Polα; PolA gene product
T1 sequence: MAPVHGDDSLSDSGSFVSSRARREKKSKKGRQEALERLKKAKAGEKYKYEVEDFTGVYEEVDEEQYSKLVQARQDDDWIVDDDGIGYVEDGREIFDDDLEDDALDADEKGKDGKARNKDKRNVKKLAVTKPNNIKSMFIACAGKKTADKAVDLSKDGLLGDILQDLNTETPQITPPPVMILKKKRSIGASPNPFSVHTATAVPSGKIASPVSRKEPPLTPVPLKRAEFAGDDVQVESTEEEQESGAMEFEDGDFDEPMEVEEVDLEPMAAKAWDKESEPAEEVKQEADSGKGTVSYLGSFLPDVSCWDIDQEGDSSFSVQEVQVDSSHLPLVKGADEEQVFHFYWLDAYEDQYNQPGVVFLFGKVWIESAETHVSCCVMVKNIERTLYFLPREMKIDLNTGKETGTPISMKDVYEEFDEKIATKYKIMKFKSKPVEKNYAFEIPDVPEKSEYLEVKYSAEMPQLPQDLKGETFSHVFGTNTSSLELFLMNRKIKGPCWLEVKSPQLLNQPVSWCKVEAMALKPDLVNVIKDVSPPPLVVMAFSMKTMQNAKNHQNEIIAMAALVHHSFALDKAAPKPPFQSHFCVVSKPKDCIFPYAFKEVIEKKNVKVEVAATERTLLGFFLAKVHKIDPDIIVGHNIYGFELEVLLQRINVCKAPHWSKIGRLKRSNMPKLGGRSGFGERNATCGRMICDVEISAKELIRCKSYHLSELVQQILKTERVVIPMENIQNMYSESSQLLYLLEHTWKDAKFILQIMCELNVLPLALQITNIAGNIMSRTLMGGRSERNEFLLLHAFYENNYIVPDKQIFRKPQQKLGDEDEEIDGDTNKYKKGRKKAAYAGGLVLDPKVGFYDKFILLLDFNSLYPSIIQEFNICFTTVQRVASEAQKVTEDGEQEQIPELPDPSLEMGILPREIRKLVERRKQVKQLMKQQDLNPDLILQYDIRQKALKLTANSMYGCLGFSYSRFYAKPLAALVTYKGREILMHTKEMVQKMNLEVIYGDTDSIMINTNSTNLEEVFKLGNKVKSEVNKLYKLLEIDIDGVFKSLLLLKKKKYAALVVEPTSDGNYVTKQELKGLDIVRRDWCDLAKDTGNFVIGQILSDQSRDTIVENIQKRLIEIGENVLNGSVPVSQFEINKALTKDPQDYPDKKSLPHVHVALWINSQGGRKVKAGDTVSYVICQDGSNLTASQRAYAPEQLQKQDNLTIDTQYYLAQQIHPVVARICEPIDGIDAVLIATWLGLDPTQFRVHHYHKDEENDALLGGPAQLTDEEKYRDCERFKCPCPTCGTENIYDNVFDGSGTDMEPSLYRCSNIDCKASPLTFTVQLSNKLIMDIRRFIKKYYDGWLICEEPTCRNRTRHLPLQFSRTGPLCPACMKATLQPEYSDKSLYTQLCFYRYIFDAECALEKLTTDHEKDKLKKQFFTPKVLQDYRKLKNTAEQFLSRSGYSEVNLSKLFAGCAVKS
Protocol: as §4

**Q.** Which “percentage of cells exhibiting substantial double-stranded DNA breaks (γ-H2AX)” value ([1]; Chk1 inhibitor 2.5 μM, 2 hours, combined with siRNA ablation of PolA, controls less than 1%, FIG. 4B) does the source give for COc1ccc(CNC(=O)c2cccc(-c3cnc(N)c(C(=O)N[C@H]4CCCNC4)n3)c2)cc1 [3-amino-6-{3-[({[4-(methyloxy)phenyl]methyl}amino)carbonyl]phenyl}-N-[(3S)-piperidin-3-yl]pyrazine-2-carboxamide] here?
**A.** over 50%

**Q.** For Nc1ccn([C@@H]2O[C@H](CO)[C@@H](O)[C@@H]2O)c(=O)n1 [Ara-C, cytarabine], which “Chk1 S345 phosphorylation after antimetabolite treatment” value [2] is on record?
**A.** induced substantial phosphorylation of Chk1

**Q.** With Nc1ccn([C@@H]2O[C@H](CO)[C@@H](O)C2(F)F)c(=O)n1 [Gem, gemcitabine] as the molecule, how does the “Chk1 S345 phosphorylation after antimetabolite treatment” value [2] read?
**A.** induced substantial phosphorylation of Chk1

**Q.** What does the source list for NC(=O)NO [HU, hydroxyurea]?
**A.** H2A.X phosphorylation compared to control samples ([1]; FIG. 4A, average of three experiments): modestly increase; cells exhibiting DNA damage compared with control cultures ([1]; FIGS. 2B and 2C, siRNA 48 h, HU 1 mM with control siRNA): approximately 10 fold; Chk1 S345 phosphorylation in whole cell extracts ([2]; 1 mM HU 15 h, cells transfected with luciferase (control) siRNA, FIG. 10): strong Chk1 S345 phosphorylation; Chk1 S345 phosphorylation after antimetabolite treatment [2]: induced substantial phosphorylation of Chk1; RPA32 phosphorylation in whole cell extracts [3]: low level RPA32 phosphorylation; time at which Chk1 S345 response in Polα complexes was complete [4]: ≤ 0.5 h

B1: Chk1 S345P (Chk1 phosphorylated at S345) (enzyme)
chain: MAVPFVEDWDLVQTLGEGAYGEVQLAVNRVTEEAVAVKIVDMKRAVDCPENIKKEICINKMLNHENVVKFYGHRREGNIQYLFLEYCSGGELFDRIEPDIGMPEPDAQRFFHQLMAGVVYLHGIGITHRDIKPENLLLDERDNLKISDFGLATVFRYNNRERLLNKMCGTLPYVAPELLKRREFHAEPVDVWSCGIVLTAMLAGELPWDQPSDSCQEYSDWKEKKTYLNPWKKIDSAPLALLHKILVENPSARITIPDIKKDRWYNKPLKKGAKRPRVTSGGVSESPSGFSKHIQSNLDFSPVNSASSEENVKYSSSQPEPRTGLSLWDTSPSYIDKLVQGISFSQPTCPDHMLLNSQLLGTPGSSQNPWQRLVKRMTRFFTKLDADKSYQCLKETCEKLGYQWKKSCMNQVTISTTDRRNNKLIFKVNLLEMDDKILVDFRLSKGDGLEFKRHFLKIKGKLIDIVSSQKVWLPAT
modifications: phosphoserine at 345 (Chk1 S345P)
notes: also called phospho-S345 Chk1; Chk S345P
**Q.** Does B1 bind [5]?
**A.** binds
